The record followed here is patent publication US20050255118A1, “Methods and composition for treating tumors and metastatic disease” (priority 2004, published 2005).

Like-named read-outs stand apart in the source and are kept apart here.

Series [1] relates to human MOLT-4 acute lymphoblastic leukemia xenografts. The experiment in a line: Growth of subcutaneously-implanted human MOLT-4 xenografts in SCID mice. The series is classed as in vivo, female SCID mice. The settings on record: for Effect on growth of SC-implanted MOLT-4 xenografts (primary tumor): treatment after establishment of tumor. On the procedure: Mice were fed sterilizable rodent diet (Harlan-Teklad TD8656). Cages were changed twice weekly.
Thirty-to-forty milligram fragments of MOLT-4 human leukemia were implanted in mice near the right auxiliary area using a 12-gauge trocar needle and allowed to grow. The day of tumor fragment implantation was Day 0 of the experiment. Tumors were allowed to reach 75-144 mg in weight (75-144 mm3 in size) before the start of the treatments. A sufficient number of mice were implanted so that tumors in a weight range as narrow as possible were selected for the trial on the day of treatment initiation (Day 14 after tumor implantation). Those animals selected with tumors in the proper size range were randomized into treatment groups. The mean tumor weights on the first day of treatment were ranging from 84 or 96 mg; median tumor weights were 75 or 88 mg on Day 14.
Natalizumab (a 20-mg/mL solution, Gensia Sicor Pharmaceuticals Inc., Lot Nos. F23014 and G23004) and a diluent (Placebo for Tysabri®, Gensia Sicor Pharmaceuticals Inc., Lot No. F85002) were received from Biogen Idec Inc. and were stored at +2-8° C. upon receipt. Vials with a 0.97-mg/mL solution of human immunoglobulin (IgG4) were supplied by Sigma-Aldrich (St. Louis, Mo., Lot No. 122K9159) and were stored at −84° C. upon receipt. A clinical formulation of Taxol® (placlitaxel) (6.0 mg/mL in 50% cremophor-EL/50% ethanol, Bristol-Myers Squibb Company, Princeton, N.J.; Lot No. 2L57296) was purchased and refrigerated upon receipt. Saline (Saline Solution 0.9%, for animal use only) was purchased from Phoenix Pharmaceutical, Inc. (St. Joseph, Mo., Lot Nos. 262053F, 206205F, 208281F) and stored at room temperature. A new bottle of saline was used on each day of formulation.
On Day 14, a 20-mg/mL solution of natalizumab was diluted with Placebo for Tysabri® to 1.0 mg/mL. On subsequent injection days, a 0.5-mg/mL solution of natalizumab was formulated by diluting a 20-mg/mL stock solution with Placebo for Tysabri®. Care was taken not to shake the vials with natalizumab; the vials were inverted to mix. A new vial of natalizumab and Placebo for Tysabri® were used on each day of formulation. On Day 14, a supplied 0.97-mg/mL stock solution of IgG4 was thawed and injected into mice. On subsequent injection days, a 0.5-mg/mL solution of IgG4 was prepared by diluting a 0.97-mg/mL stock solution with Saline Solution 0.9%. A new vial with IgG4 was used on each day of formulation. An aliquot of a commercially formulated 6-mg/mL solution of Taxol® in 50% cremophor-EL/50% ethanol was diluted on each day of injection with Saline Solution 0.9% to make a 1.5-mg/mL solution in 12.5% cremophor-EL/12.5% ethanol/75% saline. All dosing solutions were injected within 2 to 3 hours of formulation.
Primary tumors of animals in Groups 5 and 6 were surgically excised on Day 28, one day after the median tumor weight in Group S reached 466 mg. Administration of anesthesia and surgery/post-surgery recovery procedures were conducted following approved standard laboratory methods. Briefly, each animal was anesthetized and the incision site was prepared with an antiseptic solution. An incision along the periphery of one side of the tumor (no more than 3-4 mm longer than the diameter of the tumor) was made, the skin was reflected and the tumor was everted through the incision. Tumor was dissected away from the skin and muscle. The incision was closed with a 4.0-mm wound clip. Each excised tumor was cut in half, with one half of the tumor frozen in O.C.T. compound and the second half of the tumor preserved in 10% buffered formalin. The site of the resection was monitored for tumor re-growth twice a week and when a new solid tumor was formed, its dimensions were recorded.
Animals No. 1-10 in Groups 1-4 were euthanized on Day 47 after tumor implantation (16 May 2003); Animals No. 11-20 in Groups 1-4 were euthanized on Day 48 (17 May 2003). […]
Background: In xenograft studies the graft and the host belong to different species.

The conditions of series [2]: mouse, in vivo.
Excerpt: (§4) In-life experimental work commenced on Day 0 and was terminated on Day 80. Five-to-six-weeks-old, female SCID mice were purchased from Taconic Farms, Inc. (Germantown, N.Y.) and acclimated in the laboratories one week prior to experimentation. The animals were housed in a pathogen-free barrier facility in micro-isolator cages, with five animals per cage in a 12-hour light/dark cycle. The animals received filtered Birmingham municipal water and sterile rodent food ad libitum. Mice were fed sterilizable rodent diet (Harlan-Teklad TD8656). Cages were changed twice weekly. The animals were observed daily and clinical signs were noted.
(§5) Animals were randomly divided into six groups of 20 animals each and one group of 30 animals. Two groups (Groups 1 and 5) were treated with Saline Solution 0.9% (saline). Animals in Groups 2, 6, and 7 were treated with natalizumab. Animals in Group 3 were treated with IgG4 (isotype control). Animals in Group 4 were treated with Taxol® (positive control). Treatments with saline, natalizumab, and IgG4 (Groups 1, 2, 3, 5, and 6) were administered IP on Days 14, 17, 21, 24, 28, 31, 35, 38, 42, and 45 (Q3D×2 for five weeks, Friday-Monday schedule). Treatment with natalizumab in Group 7 (a group of 30 mice) was administered on Days 14, 17, 21, 24, 28, 31, 35, and 38 (Q3D×2 for four weeks). On Day 14 natalizumab was administered at a dosage of 10 mg/kg, followed by further treatments with a dosage of 5 mg/kg/dose. […]
(§6) The animals were weighed and the subcutaneous (SC) tumors were measured on the days when treatments were administered starting on Day 14 with an exception of two measurements which were done one day before the injection (on Days 24 and 41). […]
(§7) The number of non-specific deaths, number of partial and complete tumor regressions, number of tumor-free survivors, and the individual animal's time to reach the evaluation size (time to reach four tumor mass doublings) were determined. […] Mean body weights and standard deviations were calculated for each group on each day of data collection (values are presented in Tables 8-9 through 8-15).
Series [3] relates to human acute lymphoblastic leukemia xenografts. The experiment in a line: Necropsy and histopathologic evaluation of xenograft-bearing SCID mice. Also on record: species or system female SCID mice. As to conditions: mouse, in vivo. As for the experimental part:
Animals No. 1-10 in Groups 1-4 were euthanized on Day 47 after tumor implantation (16 May 2003); Animals No. 11-20 in Groups 1-4 were euthanized on Day 48 (17 May 2003). All surviving animals in Groups 5 and 6 (except for Animal No. 12 in Group 5 and Animal No. 8 in Group 6, for explanations see below) were euthanized on Day 80 after tumor implantation […]. Animal No. 12 in Group 5 was sacrificed on Day 73 due to excessive tumor weight (>4,000 mg). Animal No. 8 in Group 6 was sacrificed on Day 73 due to tumor ulceration. Five animals in Group 7 were euthanized on Days 14, 21, 28, 35, and ten animals were euthanized on Day 38. Carcasses of all animals alive on Days 47, 48, and 80 were submitted to the Safety Assessment Department of Southern Research Institute for necropsy followed by complete histopathological evaluation. Animals in Group 7 were excluded from necropsy and complete histopathological evaluation. For the animals in Groups 1-6, tumor implantation (subcutaneous) took place on Day 0. Treatment was initiated on Day 14, and treatment was terminated on Day 45. Primary tumor excision occurred on Day 28 post-implantation in Groups 5 and 6. The animals were sacrificed on Day 80. Animals in the non-excision group were sacrificed at days 47-48.
Each tumor weighing more than 100 mg was cut in half and one half of the each tumor was frozen in O.C.T. compound using a dry ice/ethanol slush, and stored at −84° C. Tumors weighing less than 100 mg (tumors of Animals No. 1, 3, 7, 9, 11, 12, 14-18, and 20 in Group 4) were frozen in O.C.T. compound in toto. Tumor of Animals No. 2, 4, 5, 6, 8, 13, and 19 in Group 4, which weighed less than 100 mg, were preserved in 10% buffered formalin in toto. After the completion of the experiment all tumor samples frozen in O.C.T. compound (a total of 145 tumor samples) were shipped to Sierra Biomedical, Division of Charles River Laboratories, to be examined by immunohistochemistry to verify that MOLT-4 was expressing VLA-4 in vivo and thus was a valid tumor model for this study. […]

Series [4] concerns tumor cell lines (nine evaluated). The experiment in a line: Preliminary cell proliferation assay on nine tumor cell lines. The settings on record: all nine of the nine cell lines evaluated. The class given is cell-based. As for the experimental part:
(§1) The evaluation of positive or negative effects on proliferation of the tumor cell lines was performed using 3H-thymidine incorporation assays. Evaluation of the inhibition or potentiation of human tumor cell growth and/or metastasis was determined using a tumor xenograft nude/SCID mouse model. Thirty-two tumor cell lines were screened. Of the thirty-two tumor cell lines, twelve were colorectal carcinoma, colorectal adenocarcinoma, colon adenocarcinoma, or colon carcinoma cell lines; seven were melanomas or amelanotic melanomas; six were urinary bladder transitional cell carcinomas or urinary bladder carcinomas; three were leukemias; two were lymphomas; and two were prostate carcinomas.
(§2) An adhesion assay for VCAM-1 binding was also performed. Seven of the eleven cell lines evaluated were positive. […] AS283, HT-29, MOLT-4, and UM-UC-3 cell lines were treated with Tysabri® (natalizumab). Tritiated thymidine uptake was measured.

The nature of series [5]: Tolerability (deaths, body weight) in MOLT-4 xenograft-bearing SCID mice.
Excerpt: as §4, §5, §6, §7
For a further series, the system named is AS283 cell line. The experiment in a line: 3H-thymidine incorporation (tritiated thymidine uptake) proliferation assay, AS283. As to conditions: 1, 2, 3, 4 and 5 days of exposure, eight concentrations (0.001-100 mg/mL). The class given is cell-based. As for the experimental part: (§3) In order to assess the potential of natalizumab to induce or inhibit proliferation of transformed cells and clonal expansion possibly leading to neoplasia, experiments were performed to determine the ability of natalizumab to stimulate growth of malignant cells expressing the receptor in vitro, and studies were conducted in animal tumor models.
as §1, §2
On the technique in general: Dividing cells build labelled thymidine or BrdU into new DNA.

For series [6], the system named is human MOLT-4 acute lymphoblastic leukemia xenografts. The experiment in a line: Growth of subcutaneously-implanted human MOLT-4 xenografts in SCID mice. The class given is in vivo, female SCID mice. The settings on record: treatment initiated Day -7.
A further series concerns MOLT-4 cell line. The experiment in a line: 3H-thymidine incorporation (tritiated thymidine uptake) proliferation assay, MOLT-4. The series is classed as cell-based, human. The settings on record: 1, 2, 3, 4 and 5 days of exposure, eight concentrations (0.001-100 mg/mL). As for the experimental part:
as §3, §1, §2

In another series the test system is UM-UC-3 cell line. The experiment in a line: 3H-thymidine incorporation (tritiated thymidine uptake) proliferation assay, UM-UC-3. The series is classed as cell-based. As to conditions: 1, 2, 3, 4 and 5 days of exposure, eight concentrations (0.001-100 mg/mL). On the procedure:
as §3, §1, §2

A further series deals with HT-29 cell line. The experiment in a line: 3H-thymidine incorporation (tritiated thymidine uptake) proliferation assay, HT-29. The class given is cell-based. The settings on record: 1, 2, 3, 4 and 5 days of exposure, eight concentrations (0.001-100 mg/mL). As for the experimental part: as §3, §1, §2

Turning to `CC(=O)O[C@H]1C(=O)[C@@]2(C)[C@H]([C@H](OC(=O)c3ccccc3)[C@]3(O)C[C@H](OC(=O)[C@H](O)[C@@H](NC(=O)c4ccccc4)c4ccccc4)C(C)=C1C3(C)C)[C@]1(OC(C)=O)CO[C@@H]1C[C@@H]2O` [Taxol, placlitaxel, reference compound], the “Measurable tumors that doubled their mass once over the course of the experiment” value in [1] (no excision (Group 4)) is “three out of eight”. Moreover, the “Animals with no measurable tumor at termination of the experiment” value in series [1] (no excision, 15 mg/kg/dose IV Q1Dx5 from Day 14) is “Twelve out of twenty”. Further, the “Effect on growth of SC-implanted MOLT-4 xenografts (primary tumor)” value in series [1] (no excision) was “very effective in the inhibition”. Also, in [2], the Tolerability of administration entry is given as “well tolerated without deaths or sustained body weight loss”. Further, the “Gross and microscopic lesions, relation to treatment” value in [3] was “spontaneous or incidental and unrelated”.
As to “natalizumab: a humanized antibody against VLA-4 as described in U.S. Pat. Nos. 5,840,299 and 6,033,665”, the “Preliminary cell proliferation assay: cytotoxic or proliferative effect” value in series [4] was “no cytotoxic or proliferative effect”. Also, in series [5] (mouse, in vivo), the “Effect on animal health (body weights over the treatment period)” value is given as “did not adversely affect animal health”. Further, in series [5] (non-excision groups, natalizumab and IgG4 IP Days 14-45, Taxol IV Q1Dx5), the Tolerability of administration result is “well tolerated without deaths”. This molecule also registered a Median tumor weight in [1] (Day 47, treatment started Day 14 on established tumor, no excision (Groups 2-4)) of 1240 mg. Also, the “Median tumor weight (re-grown tumor)” value in series [1] (Day 80, primary tumor excised Day 28 (Group 6)) worked out at 1006 mg. Besides, the “Animals staying tumor-free on day of study termination” value in series [1] (Group 6, Day 80) is listed as “two”. Further, the “Animals whose tumor re-grew at the site of the primary tumor following excision” value in series [1] (Group 6, excision Day 28) was “seventeen out of nineteen”. Further, the “Effect on re-growth of tumor at the site of excision of the primary tumor” value in [1] (Group 6 vs Group 5, excision Day 28) was “re-grew at a slower rate”. Moreover, the “Tumors growing / animals with tumor at termination of the experiment” value in [1] (no excision (Groups 2 and 3)) is “All twenty tumors grew”. The “Time for median tumor to reach four tumor mass doublings” value is above 66.0 days in [1] (primary tumor excised Day 28 (Group 6), not reached) and 33.5 days in series [1] (treatment started Day 14 on established tumor, no excision (Groups 2-4)). Besides, the “Effect on growth of SC-implanted MOLT-4 xenografts (primary tumor)” value in series [1] (no excision) is recorded as “not inhibited”. Also, the “Tritiated thymidine uptake: cytotoxic or proliferative effect” value in the series with AS283 cell line, in the series with MOLT-4 cell line, in the series with UM-UC-3 cell line and with HT-29 cell line was “no evidence of a cytotoxic or proliferative effect” throughout. Also, the “Exacerbation of growth or metastasis of the xenografts (histopathology)” value in series [3] is “no evidence of exacerbation of growth or metastasis”. In addition, the “Gross and microscopic lesions, relation to treatment” value in [3] was “spontaneous or incidental and unrelated”. In series [6], the “Effect on tumor growth, treatment initiated prior to tumor implantation” value is “significant decrease in tumor growth”.
